Reference: PMC10053807, “Natural Lipid Extracts as an Artificial Membrane for Drug Permeability Assay: In Vitro and In Silico Characterization” (Pharmaceutics, 2023)

Assays:
[1] = PAMPA permeability, comparison across the six natural lipid extract membranes; conditions: for total-polar permeability comparison: heart, liver and brain extracts, Figure 10A–C; for dependence of permeability on the lipid extract (PCA biplot): compounds near the abscissa of the PCA biplot, Figure 12
[2] = PAMPA permeability, liver polar lipid extract (LPLE) membrane; conditions: for Papp at 4 h, 100 μM: bovine, PAMPA
[3] = PAMPA permeability, brain polar lipid extract (BPLE) membrane; conditions: for Papp at 4 h, 100 μM: pig, PAMPA; for Mean Pe: * = not detected at acceptor side, value calculated from limit of detection
[4] = PAMPA permeability, heart polar lipid extract (HPLE) membrane; conditions: for Mean logPe / Mean Pe: Heart Polar lipid extract membrane, n=3; for Papp at 4 h, 100 μM: bovine, PAMPA, pH 7.4; for Mean Pe: * = not detected at acceptor side, value calculated from limit of detection
[5] = PAMPA permeability, brain total lipid extract (BTLE) membrane; conditions: for Mean logPe / Mean Pe: Brain total lipid extract membrane, n=3; for Mean Pe: * = not detected at acceptor side, value calculated from limit of detection; for Papp at 4 h, 100 μM: pig, PAMPA, pH 7.4
[6] = PAMPA permeability, liver total lipid extract (LTLE) membrane; conditions: for Mean logPe / Mean Pe: Liver total lipid extract membrane, n=3; for Papp at 4 h, 100 μM: bovine, PAMPA, pH 7.4; for Mean Pe: * = not detected at acceptor side, value calculated from limit of detection
[7] = PAMPA permeability, heart total lipid extract (HTLE) membrane; conditions: for Mean logPe / Papp at 4 h, 100 μM / Mean Pe: Heart total lipid extract membrane, n=3; for Papp at 4 h, 100 μM: bovine, PAMPA; for PAMPA permeability on HTLE: pH 7.4, 4 h, 37 °C, in words (PCA biplot, Figure 11B)
in vitro = conditions: bovine, PAMPA, pH 7.4
[8] = pH 7.4, Mean Pe, n=3, * = not detected at acceptor side, value calculated from limit of detection
[9] = Brain Polar lipid extract membrane, n=3
[10] = pH 7.4, Mean Pe, * = not detected at acceptor side, value calculated from limit of detection
[11] = * = not detected at acceptor side, value calculated from limit of detection
[12] = n=3, * = not detected at acceptor side, value calculated from limit of detection

Molecule	total-polar permeability comparison [1]	Papp at 4 h, 100 μM [2, 8]	Mean logPe [3, 9]	Papp at 4 h, 100 μM ([3]; pH 7.4)	Mean logPe [4]	Papp at 4 h, 100 μM [4]	Mean logPe [5]	Mean Pe [5]	Mean logPe [6]	Papp at 4 h, 100 μM [6]	Mean logPe [7]	Papp at 4 h, 100 μM [7, 10]	Mean logPe ([2]; n=3)	Papp at 4 h, 100 μM [5]	Mean Pe [6]	further results
O=C1CC2(CCCC2)CC(=O)N1CCCCN1CCN(c2ncccn2)CC1 [buspirone]	higher permeability in polar lipids	57 ×10⁻⁶ cm/s	–	–	–	–	–	–	–	–	–	–	–	–	–	–
CCCCOc1cc(C(=O)NCCN(CC)CC)c2ccccc2n1 [dibucaine]	higher permeability in polar lipids	39.9 ×10⁻⁶ cm/s	-4.19	65 ×10⁻⁶ cm/s	-4.31	48.6 ×10⁻⁶ cm/s	-4.40	40.24 10-6 cm/s	-4.56	28.6 ×10⁻⁶ cm/s	-4.44	37.3 ×10⁻⁶ cm/s	-4.40	–	–	PAMPA permeability on HTLE [7]: high permeability
CC(C)C(=O)Nc1ccc([N+](=O)[O-])c(C(F)(F)F)c1 [flutamide]	–	29.4 ×10⁻⁶ cm/s	-4.24	58.1 ×10⁻⁶ cm/s	-4.30	50.3 ×10⁻⁶ cm/s	-4.45	–	-4.32	47.9 ×10⁻⁶ cm/s	-4.40	41.8 ×10⁻⁶ cm/s	-4.54	35.5 ×10⁻⁶ cm/s	–	total-polar permeability comparison, brain extracts ([1]; BTLE vs BPLE): higher in the brain polar extract; total-polar permeability comparison, liver extracts ([1]; LTLE vs LPLE): higher in the liver total extract; PAMPA permeability on HTLE [7]: high permeability
CC(C)Cc1ccc(C(C)C(=O)O)cc1 (centres unmarked) [ibuprofen]	–	25.1 ×10⁻⁶ cm/s	-5.12	7.64 ×10⁻⁶ cm/s	-4.62	24.2 ×10⁻⁶ cm/s	-5.05	–	-4.54	29 ×10⁻⁶ cm/s	-4.76	17.3 ×10⁻⁶ cm/s	-4.61	8.97 ×10⁻⁶ cm/s	–	dependence of permeability on the lipid extract (PCA biplot) [1]: independent of the investigated lipids
Cc1c(OCC(F)(F)F)ccnc1C[S+]([O-])c1nc2ccccc2[nH]1 (centres unmarked) [lansoprazole]	–	24.4 ×10⁻⁶ cm/s	-4.58	26.6 ×10⁻⁶ cm/s	-4.74	18 ×10⁻⁶ cm/s	-4.54	–	-4.21	61.9 ×10⁻⁶ cm/s	-4.67	21.9 ×10⁻⁶ cm/s	-4.62	28.6 ×10⁻⁶ cm/s	–	dependence of permeability on the lipid extract (PCA biplot) [1]: independent of the investigated lipids
COc1ccc2c(c1)N(C[C@H](C)CN(C)C)c1ccccc1S2 [levomepromazine]	heart total-liver polar	28.5 ×10⁻⁶ cm/s	-4.83	15.1 ×10⁻⁶ cm/s	-5.20	6.57 ×10⁻⁶ cm/s	-4.89	–	–	< 3.72 ×10⁻⁶ cm/s	-4.90	13.2 ×10⁻⁶ cm/s	–	15.8 ×10⁻⁶ cm/s	< 3,7* 10-6 cm/s	Papp at 4 h, 100 μM ([2]; pH 7.4, Mean logPe, n=3): 23.4 ×10⁻⁶ cm/s
O=C1CN=C(c2ccccc2)c2cc([N+](=O)[O-])ccc2N1 [nitrazepam]	higher permeability in total lipids	–	-4.67	21.5 ×10⁻⁶ cm/s	-4.54	–	-4.47	–	-4.26	–	-4.46	–	-4.60	34.1 ×10⁻⁶ cm/s	–	–
O=C1NC(=O)C(c2ccccc2)(c2ccccc2)N1 [phenytoin]	–	34.6 ×10⁻⁶ cm/s	-4.57	27.2 ×10⁻⁶ cm/s	-4.42	38.4 ×10⁻⁶ cm/s	-4.46	–	-4.35	44.7 ×10⁻⁶ cm/s	-4.84	14.7 ×10⁻⁶ cm/s	-4.46	35.3 ×10⁻⁶ cm/s	–	dependence of permeability on the lipid extract (PCA biplot) [1]: independent of the investigated lipids
N=C(N)c1ccc(OCCCOc2ccc(C(=N)N)cc2)cc1 [propamidine]	–	–	< -6.12	–	–	< 0.741 ×10⁻⁶ cm/s	< -6.13	< 0,73* 10-6 cm/s	< -6.12	–	–	–	< -6.12	–	< 0,76* 10-6 cm/s	Mean Pe [3, 9]: < 0,76* 10-6 cm/s; Mean Pe [4]: < 0,73* 10-6 cm/s; Mean Pe [7, 11]: < 0,76* 10-6 cm/s; Papp at 4 h, 100 μM ([7]; pH 7.4, Mean logPe): < 0.759 ×10⁻⁶ cm/s; Mean Pe [2, 12]: < 0,76* 10-6 cm/s
CC(C)c1nc(N(C)S(C)(=O)=O)nc(-c2ccc(F)cc2)c1/C=C/[C@@H](O)C[C@@H](O)CC(=O)O [rosuvastatin]	–	–	< -6.32	–	–	< 0.468 ×10⁻⁶ cm/s	< -6.33	< 0,46* 10-6 cm/s	< -6.32	–	–	–	< -6.32	–	< 0,48* 10-6 cm/s	Mean Pe [3, 9]: < 0,48* 10-6 cm/s; Mean Pe [4]: < 0,46* 10-6 cm/s; Mean Pe [7, 11]: < 0,48* 10-6 cm/s; Papp at 4 h, 100 μM ([7]; pH 7.4, Mean logPe): < 0.479 ×10⁻⁶ cm/s; Mean Pe [2, 12]: < 0,48* 10-6 cm/s
CC(=O)CC(c1ccccc1)c1c(O)c2ccccc2oc1=O (centres unmarked) [warfarin]	–	7.48 ×10⁻⁶ cm/s	–	0.47 ×10⁻⁶ cm/s	-5.50	3.25 ×10⁻⁶ cm/s	-5.62	–	-4.86	13.9 ×10⁻⁶ cm/s	–	0.29 ×10⁻⁶ cm/s	-5.14	2.43 ×10⁻⁶ cm/s	–	Papp at 4 h, 100 μM ([3]; pH 7.4, Mean logPe, Brain Polar lipid extract membrane, n=3): 1.41 ×10⁻⁶ cm/s; Papp at 4 h, 100 μM (in vitro): 0.891 ×10⁻⁶ cm/s; PAMPA permeability on HTLE [7]: low
ondansetron	–	–	-4.71	–	-4.86	–	-4.63	23.49 10-6 cm/s	–	–	-5.01	–	-4.59	–	57.25 10-6 cm/s	Mean Pe [3, 9]: 19.60 10-6 cm/s; Mean Pe [4]: 13.69 10-6 cm/s; Mean Pe [7, 11]: 9.85 10-6 cm/s; Mean Pe [2, 12]: 25.69 10-6 cm/s
